Results on 23 compounds are retold here after article PMC12631574, “Structure–activity relationships of hydrophobic small molecule irreversible inhibitors of tissue transglutaminase” (RSC Medicinal Chemistry, 2025).

As usually defined, the kinact is the rate constant of inactivation at saturating inhibitor.

Each structure is given as a SMILES string.

The assay addresses T1, tissue transglutaminase (TG2), C-terminal His-tag TG2 (Homo sapiens, UniProt P21980).
T1 construct: host or cells: Novagen Rosetta 2 (DE3) E. coli
T1 sequence (P21980 1-687): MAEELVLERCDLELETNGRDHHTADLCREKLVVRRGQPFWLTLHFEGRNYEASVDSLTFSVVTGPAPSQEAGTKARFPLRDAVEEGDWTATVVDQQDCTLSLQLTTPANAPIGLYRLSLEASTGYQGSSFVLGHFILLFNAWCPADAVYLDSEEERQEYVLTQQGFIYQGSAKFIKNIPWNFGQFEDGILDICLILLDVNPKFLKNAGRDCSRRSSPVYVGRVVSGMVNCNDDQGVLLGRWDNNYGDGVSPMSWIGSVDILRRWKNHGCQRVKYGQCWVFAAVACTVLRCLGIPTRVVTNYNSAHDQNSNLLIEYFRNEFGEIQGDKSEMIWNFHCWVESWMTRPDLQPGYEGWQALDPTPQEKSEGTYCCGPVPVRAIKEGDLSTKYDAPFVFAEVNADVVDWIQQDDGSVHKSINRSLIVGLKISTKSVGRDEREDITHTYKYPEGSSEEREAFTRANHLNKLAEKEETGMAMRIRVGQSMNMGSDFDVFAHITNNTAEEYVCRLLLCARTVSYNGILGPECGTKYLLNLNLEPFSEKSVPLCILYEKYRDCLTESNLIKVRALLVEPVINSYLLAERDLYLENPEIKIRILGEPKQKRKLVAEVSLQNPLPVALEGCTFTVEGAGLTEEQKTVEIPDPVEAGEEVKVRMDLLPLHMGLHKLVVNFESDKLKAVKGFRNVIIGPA
The experiment in a line: continuous AL5 hydrolysis assay of irreversible TG2 inhibition (kobs vs [I]/α). It is filed as biochemical.

Where [1] appears, read: irreversible inhibition, AL5 100 μM, pH 6.9, 25 °C, triplicate.
Setting [2] is: supplement, kinetics data and fitting.

`C=CC(=O)NCC(=O)N1CCN(S(=O)(=O)C23CC4CC(CC(C4)C2)C3)CC1` [Compound 38, N-[2-(4-((Adamantan-1-yl)sulfonyl)piperazin-1-yl)-2-oxoethyl]propenamide]: the inactivation rate constant (kinact) was 0.0162 s⁻¹. The KI (inactivation) under setting [1] was 7.56 ± 1.87 µM. Besides, under setting [2], the KI (inactivation) was found to be 7.56 ± 1.87 µM and the kinact/KI is reported as 129 ± 36 × 103 M-1min-1.

With `C=CC(=O)NCC(=O)N1CCN(C(=O)c2ccc(-c3cccc(C)c3)cc2)CC1` [Compound 21h, N-2-[4-[((3′-Methyl-4-biphenyl)carbonyl)-1-piperazinyl]-2-oxoethyl]propenamide], the inactivation rate constant (kinact) is 0.0148 s⁻¹. Moreover, the KI (inactivation) under setting [1] was found to be 38.9 ± 17.7 µM. In addition, under setting [2], the KI (inactivation) amounted to 38.9 ± 17.7 µM and the kinact/KI is listed as 22.8 ± 11.7 × 103 M-1min-1.

As to `C=CC(=O)NCC(=O)N1CCN(C(=O)C2CCC2)CC1` [Compound 6b, N-2-[4-[(Cyclobutanecarbonyl)-1-piperazinyl]-2-oxoethyl]propenamide], the kinact is 0.00842 s⁻¹. The KI (inactivation) under setting [1] turned out to be 20.2 ± 3.5 µM. Moreover, under setting [2], the KI (inactivation) was found to be 20.2 ± 3.5 µM and the kinact/KI is on record as 25.0 ± 4.7 × 103 M-1min-1.

For the compound `C=CC(=O)NCC(=O)N1CCN(C(=O)c2cccc(-c3cccc(C)c3)c2)CC1` [Compound 21e, N-2-[4-[((3′-Methyl-3-biphenyl)carbonyl)-1-piperazinyl]-2-oxoethyl]propenamide], the kinact was 0.0104 s⁻¹. Also, under setting [1], the KI (inactivation) is 4.4 ± 2.8 µM. Moreover, under setting [2], the KI (inactivation) was found to be 4.42 ± 2.83 µM and the kinact/KI was 141 ± 98 × 103 M-1min-1.

Consider `C=CC(=O)NCC(=O)N1CCN(C(=O)C2CCCCCC2)CC1` [Compound 6e, N-2-[4-[(Cycloheptanecarbonyl)-1-piperazinyl]-2-oxoethyl]propenamide], for which the kinact was 0.0099 s⁻¹. The compound further displayed a KI (inactivation) under setting [1] of 21.5 ± 11 µM. Under setting [2], the KI (inactivation) was determined as 21.5 ± 11 µM and the kinact/KI is recorded as 27.6 ± 16.1 × 103 M-1min-1.

As for `C=CC(=O)NCC(=O)N1CCN(C(=O)c2cccc(-c3ccccc3C)c2)CC1` [Compound 21d, N-2-[4-[((2′-Methyl-3-biphenyl)carbonyl)-1-piperazinyl]-2-oxoethyl]propenamide], the kinact is 0.012 s⁻¹. Moreover, under setting [1], the KI (inactivation) was 1.1 ± 0.1 µM. Under setting [2], the KI (inactivation) stood at 1.13 ± 0.099 µM and the kinact/KI is recorded as 636 ± 58 × 103 M-1min-1.

As to `C=CC(=O)NCC(=O)N1CCN(C(=O)c2cccc(Cc3ccccc3)c2)CC1` [Compound 22d, N-2-[4-[((3-benzylphenyl)carbonyl)-1-piperazinyl]-2-oxoethyl]propenamide], the kinact is 0.0168 s⁻¹. The compound also showed a KI (inactivation) under setting [1] of 8.8 ± 2.7 µM. Under setting [2], the KI (inactivation) turned out to be 8.84 ± 2.72 µM and the kinact/KI is 114 ± 38 × 103 M-1min-1.

With `C=CC(=O)NCC(=O)N1CCN(C(=O)c2ccc(Nc3ccccc3)cc2)CC1` [Compound 22i, N-2-[4-[(((4-Phenylamino)phenyl)carbonyl)-1-piperazinyl]-2-oxoethyl]propenamide], the kinact is 0.0255 s⁻¹. Under setting [1], this compound registered a KI (inactivation) of 92.8 ± 43.3 µM. In addition, under setting [2], the KI (inactivation) amounted to 92.8 ± 43.3 µM and the kinact/KI is on record as 16.5 ± 9.4 × 103 M-1min-1.

As for `C=CC(=O)NCC(=O)N1CCN(C(=O)c2ccccc2-c2cccc(C)c2)CC1` [Compound 21b, N-2-[4-[((3′-Methyl-2-biphenyl)carbonyl)-1-piperazinyl]-2-oxoethyl]propenamide], the kinact is 0.00902 s⁻¹. Under setting [1], the KI (inactivation) is 2.6 ± 0.7 µM. Moreover, under setting [2], the KI (inactivation) came out at 2.64 ± 0.72 µM and the kinact/KI is on record as 205 ± 60 × 103 M-1min-1.

For the compound `C=CC(=O)NCC(=O)N1CCN(C(=O)c2ccccc2)CC1` [Compound 6f, N-2-[4-[(Benzoyl)-1-piperazinyl]-2-oxoethyl]propenamide], the kinact is 0.00827 s⁻¹. Also, under setting [1], the KI (inactivation) came out at 8.1 ± 2.5 µM. For the same compound, under setting [2], the KI (inactivation) was 8.12 ± 2.47 µM and the kinact/KI is reported as 61.1 ± 20.0 × 103 M-1min-1.

`C=CC(=O)NCC(=O)N1CCN(C(=O)c2ccccc2-c2ccccc2C)CC1` [Compound 21a, N-2-[4-[((2′-Methyl-2-biphenyl)carbonyl)-1-piperazinyl]-2-oxoethyl]propenamide]: the kinact was 0.00955 s⁻¹. The KI (inactivation) under setting [1] worked out at 4.8 ± 1 µM. Also, under setting [2], the KI (inactivation) was found to be 4.85 ± 1.02 µM and the kinact/KI is recorded as 118 ± 27 × 103 M-1min-1.

For `C=CC(=O)NCC(=O)N1CCN(C(=O)c2ccccc2Oc2ccccc2)CC1` [Compound 22b, N-2-[4-[((2-Phenoxyphenyl)carbonyl)-1-piperazinyl]-2-oxoethyl]propenamide], the kinact is 0.0143 s⁻¹. The same compound gave a KI (inactivation) under setting [1] of 9.1 ± 0.8 µM. Further, under setting [2], the KI (inactivation) was 9.06 ± 0.8 µM and the kinact/KI is listed as 94.8 ± 9.0 × 103 M-1min-1.

With `C=CC(=O)NCC(=O)N1CCN(C(=O)C2CC2)CC1` [Compound 6a, N-2-[4-[(Cyclopropanecarbonyl)-1-piperazinyl]-2-oxoethyl]propenamide], the kinact was 0.00593 s⁻¹. This compound also returned a KI (inactivation) under setting [1] of 23.5 ± 6.5 µM. Under setting [2], the KI (inactivation) turned out to be 23.5 ± 6.5 µM and the kinact/KI was 15.2 ± 4.6 × 103 M-1min-1.

With `C=CC(=O)NCC(=O)N1CCN(C(=O)c2cccc(-c3ccccc3)c2)CC1` [Compound 7b, N-2-[4-[((3-Biphenyl)carbonyl)-1-piperazinyl]-2-oxoethyl]propenamide], the kinact was 0.0118 s⁻¹. Moreover, the KI (inactivation) under setting [1] was found to be 5.3 ± 1.4 µM. For the same compound, under setting [2], the KI (inactivation) was 5.29 ± 1.39 µM and the kinact/KI is recorded as 133.9 ± 38.4 × 103 M-1min-1.

Regarding `C=CC(=O)NCC(=O)N1CCN(C(=O)C23CC4CC(CC(F)(C4)C2)C3)CC1` [Compound 25a, N-2-[4-[(3-Fluoroadamantanecarbonyl)-1-piperazinyl]-2-oxoethyl]propenamide], the KI (inactivation) stood at 3.15 ± 0.33 µM under setting [1] and 3.15 ± 0.33 µM under setting [2].

With `C=CC(=O)NCC(=O)N1CCN(C(=O)c2ccccc2Nc2ccccc2)CC1` [Compound 22c, N-2-[4-[(((2-Phenylamino)phenyl)carbonyl)-1-piperazinyl]-2-oxoethyl]propenamide], the kinact was 0.0119 s⁻¹. For the same compound, under setting [1], the KI (inactivation) worked out at 6.4 ± 0.7 µM. Moreover, under setting [2], the KI (inactivation) turned out to be 6.38 ± 0.7 µM and the kinact/KI was 112 ± 14 × 103 M-1min-1.

On to `C=CC(=O)NCC(=O)N1CCN(C(=O)c2ccccc2-c2ccc(C)cc2)CC1` [Compound 21c, N-2-[4-[((4′-Methyl-2-biphenyl)carbonyl)-1-piperazinyl]-2-oxoethyl]propenamide], for which the kinact was 0.00807 s⁻¹. Further, the KI (inactivation) under setting [1] was 8.3 ± 2.1 µM. Under setting [2], the KI (inactivation) was 8.28 ± 2.08 µM and the kinact/KI was 58.5 ± 16.2 × 103 M-1min-1.

Take `C=CC(=O)NCC(=O)N1CCN(C(=O)c2ccc(-c3ccccc3)cc2)CC1` [Compound 7c, N-2-[4-[((4-Biphenyl)carbonyl)-1-piperazinyl]-2-oxoethyl]propenamide]: the kinact was 0.0118 s⁻¹. The same compound displayed a KI (inactivation) under setting [1] of 41.1 ± 32.2 µM. Moreover, under setting [2], the KI (inactivation) came out at 41.1 ± 32.3 µM and the kinact/KI was 17.2 ± 15.5 × 103 M-1min-1.

`C=CC(=O)NCC(=O)N1CCN(C(=O)C2CCCC2)CC1` [Compound 6c, N-2-[4-[(Cyclopentanecarbonyl)-1-piperazinyl]-2-oxoethyl]propenamide]: the kinact was 0.00868 s⁻¹. In addition, under setting [1], the KI (inactivation) is 13 ± 1.6 µM. Under setting [2], the KI (inactivation) stood at 13 ± 1.6 µM and the kinact/KI is reported as 40.0 ± 5.3 × 103 M-1min-1.

For the compound `C=CC(=O)NCC(=O)N1CCN(C(=O)c2cccc(Nc3ccccc3)c2)CC1` [Compound 22f, N-2-[4-[(((3-Phenylamino)phenyl)carbonyl)-1-piperazinyl]-2-oxoethyl]propenamide], the kinact was 0.0165 s⁻¹. Under setting [1], the KI (inactivation) was found to be 31.7 ± 8.6 µM. Also, under setting [2], the KI (inactivation) was determined as 31.7 ± 8.6 µM and the kinact/KI is 31.2 ± 10.0 × 103 M-1min-1.

Regarding `C=CC(=O)NCC(=O)N1CCN(C(=O)c2ccccc2-c2ccccc2)CC1` [Compound 7a, N-2-[4-[((2-Biphenyl)carbonyl)-1-piperazinyl]-2-oxoethyl]propenamide], the kinact is 0.00958 s⁻¹. The KI (inactivation) under setting [1] stood at 3.2 ± 1 µM. In addition, under setting [2], the KI (inactivation) is 3.23 ± 1.14 µM and the kinact/KI was 178.0 ± 68.6 × 103 M-1min-1.

With `C=CC(=O)NCC(=O)N1CCN(C(=O)c2ccccc2Cc2ccccc2)CC1` [Compound 22a, N-2-[4-[((2-Benzylphenyl)carbonyl)-1-piperazinyl]-2-oxoethyl]propenamide], the inactivation rate constant (kinact) is 0.0146 s⁻¹. This compound also returned a KI (inactivation) under setting [1] of 14.2 ± 3.3 µM. Also, under setting [2], the KI (inactivation) came to 14.2 ± 3.3 µM and the kinact/KI is listed as 61.3 ± 15.9 × 103 M-1min-1.

For the compound `C=CC(=O)NCC(=O)N1CCN(C(=O)c2ccc(Cc3ccccc3)cc2)CC1` [Compound 22g, N-2-[4-[((4-Benzylphenyl)carbonyl)-1-piperazinyl]-2-oxoethyl]propenamide], the kinact was 0.0253 s⁻¹. Also, the KI (inactivation) under setting [1] worked out at 58.1 ± 9.4 µM. Besides, under setting [2], the KI (inactivation) was determined as 58.1 ± 9.4 µM and the kinact/KI is 26.1 ± 4.9 × 103 M-1min-1.
